Assay results reported in article PMC4840437, “Crystal Structures and Binding Dynamics of Odorant-Binding Protein 3 from two aphid species Megoura viciae and Nasonovia ribisnigri” (Scientific Reports, 2016).
Like-named read-outs stand apart in the source and are kept apart here.

Experiments:
NribOBP3 [1] = target: T1, NribOBP3 (Nasonovia ribisnigri, UniProt A0A0M4AUH6); assay: Competitive fluorescence binding assay (NPN displacement)
T1 sequence (A0A0M4AUH6 1-119): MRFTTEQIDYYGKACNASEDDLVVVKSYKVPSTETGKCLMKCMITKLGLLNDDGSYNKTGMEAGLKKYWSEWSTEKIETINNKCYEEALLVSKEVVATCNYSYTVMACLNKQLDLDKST
Procedure: (§1) Proteins were dissolved in 20 mM Tris-HCl buffer pH 7.4 and emission fluorescence spectra were recorded on a LS50 Luminescence Spectrometer (PerkinElmer, Buckinghamshire, UK) at 22 °C in a right angle configuration, with a 1 cm light path quartz cuvette and 5–10 nm slits for excitation and emission. […] The probe was excited at 337 nm and emission spectra were recorded between 380 and 450 nm. […] For determining binding constants, the intensity values corresponding to the maximum fluorescence emission were plotted against free ligand concentrations. We use GraphPad (http://www.graphpad.com/guides/prism/6/curve-fitting/index.htm?reg_one_site_competition_ki.htm) to determine the equilibrium dissociation constant Ki of ligand by measuring its competition for NPN and nonlinear regression curve fitting to the one site competitive binding model. This model fits the Ki of the ligand directly using the fixed concentration of NPN and the dissociation constant for NPN KNPN obtained from a direct fluorescence titration and nonlinear regression curve fitting to one site binding model Y = Bmax*X/(KNPN + X) + NS*X (X is the NPN concentration, Bmax is the maximum specific binding in the same units as Y, NS is the slope of nonspecific binding in Y units divided by X units). The corrected Ki is fitted directly rather than fitting an IC50 and modifying it with the Cheng and Prusoff equation[48]. The analysis assumes that the protein has one binding site and 100% active, and that the binding is reversible and at equilibrium. Tested compounds were EβF (Bedoukian Research, Danbury, CT, USA), β-pinene, (−)-α-pinene and (+)-limonene (Sigma, St. Louis, MO).

MvicOBP3 [2] = target: T2, MvicOBP3 (Megoura viciae, UniProt A0A0S2E5N6); assay: as above
T2 sequence (A0A0S2E5N6 2-122): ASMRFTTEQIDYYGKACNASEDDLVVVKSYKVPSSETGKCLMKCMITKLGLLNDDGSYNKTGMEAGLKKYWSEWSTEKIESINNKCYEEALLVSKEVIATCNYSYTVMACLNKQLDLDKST
Procedure: as §1

NribOBP3 [3] = target: T1, NribOBP3; assay: Direct fluorescence titration of the probe NPN; format: binding; conditions: recombinant NribOBP3, 2 μM protein, 20 mM Tris-HCl pH 7.4, 22 °C; read-out: Kd of fluorescent probe NPN
Procedure: as §1, with “The analysis assumes that the protein has one binding site and 100% active, and that the binding is reversible and at equilibrium. Tested compounds were EβF (Bedoukian Research, Danbury, CT, USA), β-pinene, (−)-α-pinene and (+)-limonene (Sigma, St. Louis, MO).” left out

MvicOBP3 [4] = target: T2, MvicOBP3; assay: Direct fluorescence titration of the probe NPN; format: binding; conditions: recombinant MvicOBP3, 2 μM protein, 20 mM Tris-HCl pH 7.4, 22 °C; read-out: Kd of fluorescent probe NPN
Procedure: as §1, with “The analysis assumes that the protein has one binding site and 100% active, and that the binding is reversible and at equilibrium. Tested compounds were EβF (Bedoukian Research, Danbury, CT, USA), β-pinene, (−)-α-pinene and (+)-limonene (Sigma, St. Louis, MO).” left out

[5] = displacement of NPN (2 μM) from NribOBP3/NPN complex, one site competitive binding model, read-out: Competitive inhibitor binding constant (Ki)
[6] = displacement of NPN (2 μM) from MvicOBP3/NPN complex, one site competitive binding model, read-out: Competitive inhibitor binding constant (Ki)

C=CC(=C)CC/C=C(\C)CCC=C(C)C [(E)-β-farnesene]
Ki (NribOBP3 [1]; [5]): 5.2 µM
Ki (MvicOBP3 [2]; [6]): 0.1 µM

c1ccc(Nc2cccc3ccccc23)cc1 [NPN, N-phenyl-1-naphthylamine]
Kd (NribOBP3 [3]): 9 µM
Kd (MvicOBP3 [4]): 1.9 µM

CC1=CCC2CC1C2(C)C (stereo not drawn) [(−)-α-pinene]
Ki (NribOBP3 [1]; [5]): 20.2 µM
Ki (MvicOBP3 [2]; [6]): 1.8 µM

C=C(C)C1CC=C(C)CC1 (single isomer, unassigned; (+)) [(+)-limonene]
Ki (MvicOBP3 [2]; [6]): 2.5 µM

C=C1CCC2CC1C2(C)C (stereo not drawn) [β-pinene]
Ki (NribOBP3 [1]): 30.7 µM
Ki (MvicOBP3 [2]): 2.3 µM
